Columns and labels:
DDB1-BPB [1] = target: T1, DDB1-BPB (Homo sapiens (Human), UniProt Q16531); experiment: Microscale Thermophoresis (MST) binding to DDB1-BPB; settings: labeled DDB1-BPB, 25° C.
Description: Kd represents dissociation constant, which measures the affinity of small molecule binding to the scaffold DDB1-BPB by Microscale Thermophoresis (MST) (see Table 1, column 9). MST experiments were performed on a Monolith NT 115 system (Nano Temper Technologies, Munich, Germany) using 100% LED and 60% IR-laser power (https://physiology.case.edu/media/eq manuals/eq_manual_nano-temper_mst_starting_guide.pdf, hereby incorporated by reference in its entirety for all purposes). The labeling of DDB1-BPB ([…]) was performed in labeling buffer with NHS-Red reactive dye (30 μM) (Nanotemper), which reacts efficiently with the primary amines of the proteins to form a stable dye protein conjugates. The labeling reaction was carried out at RT. A 16-point serial dilution (1:1) was prepared for compound at the final concentration ranged from 200 µM to 3 nM in PBS containing 0.05% tween. The samples were filled into Premium capillaries and measurements were conducted at 25° C. An equation implemented by the software MO-S002 MO Affinity Analysis, provided by the manufacturer, was used for fitting normalized fluorescence values at different concentrations of ligands.

[2] = Dynamic light scattering (DLS) solubility assay; type: physicochemical; settings: normalized intensity ratio of 25 μM compound vs DMSO, in PBS
Description: Dynamic light scattering (DLS) (see Table 1, column 3) is a tool for studying the diffusion behavior of macromolecules in solution. To profile compound solubility, DLS assay was developed for measuring aggregation of small molecule compounds. Compound stock solution was prepared in DMSO. Dilution series were made for each compound in DMSO to ensure a final 1× assay concentration range of 200 μM to 0.78 μM. For example, if the final DMSO concentration was 1%, compounds were prepared at 100× concentrations ranging from […] to 78 μM. Dilute compounds in PBS solution to final concentration. Place 60 μl/well in 96 well plates and 3 replicates for each sample. Data were collected using a DynaPro Plate Reader III (WYATT Technologies, Inc., USA). The instrument was adjusted to measure the optimal light scattering intensity according to the manufacturer's instructions. […] The ratio over 2 means (−) insoluble. The ratio below 2 means (+) soluble and around 2 means (+/−).

[3] = system: UV-induced CUL4-dependent DDB2 degradation in MEF-F-DDB2 cells; experiment: Cell-based assay for inhibition of UV-induced CUL4-dependent DDB2 degradation; set-up: key: (+) means that the normalized DDB2/α-tubulin ratio is higher in the compound treated sample than DMSO treated sample; (−) means that no change happens between compound treated sample with control sample; settings: DDB2/α-tubulin by Western blot
Procedure, shortened: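 MEF cells expressing Flag-DDB2, in serum-free medium, treated with DMSO or compound, UV-irradiated (254 nm, 0.2 W/m^2), then harvested. Flag-DDB2 measured by western blot against α-tubulin; (+) denotes normalized DDB2/α-tubulin above DMSO, (−) no change.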

[4] = target: CUL4A-DDB1-BPB interaction (Homo sapiens (Human), UniProt Q16531); experiment: AlphaLISA in vitro binding assay, CUL4A and DDB1-BPB binding; settings: inhibition of CUL4A and DDB1-BPB binding
Procedure, shortened: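 Compound disruption of CUL4A binding to DDB1-BPB measured by AlphaLISA/AlphaScreen bead proximity in 384-well format. IC50 from nonlinear log(inhibitor)-vs-response curve fit.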

[5] = system: CUL4A^high MDA-MB-468 breast cancer cells; experiment: Cell killing in CUL4-high MDA-MB-468 cells (CellTiter Glo); type: cell-based; settings: Homo sapiens, 192 h; MDA-MB-468 cells, 8 days treatment; read-out: EC50 CUL4-High Cells (cell killing)
Procedure, shortened: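 Cells seeded, treated after 24 h with DMSO or compound (0 to 20 μM). Medium and compound replaced every 48 h over 8 days. Viability measured by CellTiter-Glo luminescence; EC50 (50% killing) from log(inhibitor) vs response nonlinear fit.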

[6] = system: CUL4A^low T47D breast cancer cells; experiment: Cell killing in CUL4-low T47D cells (CellTiter Glo); type: cell-based; settings: Homo sapiens, 192 h; T47D cells, 8 days treatment; read-out: EC50 CUL4-Low Cells (cell killing)
Description: EC50 indicates compound concentration can cause 50% cell killing in CUL4° ^w T47D cells (see Table 1, column 7). CUL4A^low T47D breast cancer cells were seeded in 96 well plate. […] Change fresh medium and compounds every 48 hours. After 8 days treatment, cell viability was examined by using CellTiter Glo kit (Promega #7570) following the manufacturer's guidelines (https://www.promega.com/-/media/files/resources/protocols/technical-bulletins/0/celltiter-glo-luminescent-cell-viability-assay-protocol.pdf?rev=0d95c232094b41daa06d0c110d1d916f&sc_lang=en, hereby incorporated by reference in its entirety for all purposes). EC50 concentration was calculated by Prism 8 XY analysis nonlinear regression (curve fit-Log(inhibitor) vs response). EC50 indicates cell killing potential in CUL4 low T47D cell line and the EC50 difference between CUL4^high and CUL4^low cells indicates the small molecule cause specific cell killing.
CUL4A^high MDA-MB-468, CUL4^low (T47D), and MCF7 breast cancer cells were seeded in 96 well plates separately. […] Replace with fresh medium and compounds every 48 hours. After 8 days treatment, cell viability was examined by CellTiter Glo kit (Promega #7570). First, transfer the appropriate volume (10 ml for Cat. #G7570) of CellTiter-Glo® Buffer into the amber bottle containing CellTiter-Glo® Substrate to reconstitute the lyophilized enzyme/substrate mixture. This forms the CellTiter-Glo® Reagent. Second, add CellTiter-Glo® Reagent in an equal volume (100 μl per well for 96-well plates) to all wells. Mix contents for 2 minutes on an orbital shaker to induce cell lysis. Incubate at room temperature for 15 minutes to stabilize luminescent signal. Then record luminescence. EC50 concentration was calculated by Prism 8 XY analysis nonlinear regression (curve fit-Log(inhibitor) vs response).

DDB1-BPB [7] = target: T1, DDB1-BPB; experiment: Surface Plasmon Resonance (SPR) binding to DDB1-BPB; settings: DDB1-BPB immobilized
Text: Kd represents dissociation constant, which measures the affinity of small molecule binding to the scaffold DDB1-BPB by Surface Plasmon Resonance (SPR) (https://www.bio-rad.com/webroot/web/pdf/lsr/literature/Bulletin_6414.pdf, hereby incorporated by reference in its entirety) (see Table 1, column 8). To assess the interaction between DDB1-BPB and compounds, a multi-parametric SPR instrument (BioRad ProteON XPR360) was used. DDB1-BPB was immobilized onto the GLH sensor surface in a variety of ways as follows: flow channels were activated in parallel with 1/20 diluted EDC/SNHS. DDB1-BPB was diluted to 0.1 mg/mL in sodium acetate pH 4.5 and directly coupled onto channel for 4 min. Excess reactive esters were blocked with a 5-min injection of 1 M ethanolamine. Mean immobilization levels were 17,000 RU with <2% variation along a strip. One channel was left unmodified to provide an additional reference surface. Next, the binding kinetics of compounds on surfaces was determined in a single injection using a “one-shot” kinetic mode. Typically, compound was prepared as a twofold serial dilution (0, 3.125, 6.25, 12.5, 25, 50 μM) and injected for 60 s at […]. Dissociation was monitored for 800 s. Surfaces were regenerated with multiple 30-s pulses of 60 mM phosphoric acid so that the experiment could be reproduced. All resulting sensor grams were collected and analyzed using the ProteOn manager software.

T1 sequence (Q16531 403-706): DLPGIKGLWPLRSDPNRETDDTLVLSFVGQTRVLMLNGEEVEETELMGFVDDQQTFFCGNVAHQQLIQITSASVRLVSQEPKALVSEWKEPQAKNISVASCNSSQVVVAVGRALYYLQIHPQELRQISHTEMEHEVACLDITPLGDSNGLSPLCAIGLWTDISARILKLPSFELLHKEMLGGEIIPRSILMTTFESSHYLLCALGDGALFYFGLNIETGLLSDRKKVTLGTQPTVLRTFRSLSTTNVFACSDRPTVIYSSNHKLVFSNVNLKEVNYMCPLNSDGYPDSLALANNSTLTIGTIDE
Chain of CUL4A-DDB1-BPB interaction (Q16531 403-706): as above

For `CN(c1ccc(-c2nc(C(=O)O)cc3c2[nH]c2ccc(F)cc23)cc1)S(=O)(=O)c1cccnc1` [PA2-6, 6-fluoro-1-(4-(N-methylpyridine-3-sulfonamido)phenyl)-9H-pyrido[3,4-b]indole-3-carboxylic acid], the Kd (DDB1-BPB [1]) was 25.5 µM, the “Solubility (DLS Assay)” value [2] was “-(insoluble)” and the “Degradation Inhibition (inhibition of UV-induced DDB2 degradation)” value (from here on “Degradation Inhibition”) [3] was “−”. It also gave an IC50 [4] of 0.47 µM, an EC50 [5] of 22.3 µM and an EC50 [6] greater than 100 µM.
In the case of `CS(=O)(=O)c1ccc(-c2nc(C(=O)O)cc3c2[nH]c2ccccc23)cc1` [PA35, 1-(4-methylsulfonylphenyl)-9H-pyrido[3,4-b]indole-3-carboxylic acid], the IC50 [4] is reported as 1.06 ± 0.51 µM, the EC50 [5] is reported as greater than 100 µM and the Kd (DDB1-BPB [7]) is reported as 5.58 µM. It also gave an EC50 [6] greater than 100 µM.
With `COC(=O)c1cccc(-c2nc(C(=O)OC(C)(C)C)cc3c2[nH]c2ccccc23)c1` [PA43] the “Solubility (DLS Assay)” value [2] was “-(insoluble)”, the “AlphaLisa IC50” value [4] was “Neg” and the EC50 [5] was 28.3 µM. The “Kd (SPR)” value (DDB1-BPB [7]) was “no binding” and the EC50 [6] was 48.2 µM.
In the case of `COC(=O)c1cc2c([nH]c3ccccc32)c(-c2ccc(NCc3ccc(F)cc3)cc2)n1` [PA57, methyl 1-[4-[(4-fluorophenyl)methylamino]phenyl]-9H-pyrido[3,4-b]indole-3-carboxylate], the “Kd (MST)” value (DDB1-BPB [1]) is reported as “Insoluble”, the “Solubility (DLS Assay)” value [2] is reported as “-(insoluble)” and the “AlphaLisa IC50” value [4] is reported as “Neg”. It also gave an EC50 [5] of 1.08 µM and an EC50 [6] of 1.6 µM.
In the case of `COC(=O)c1cc2c([nH]c3ccccc32)c(-c2ccc(SCc3ccccc3)cc2)n1` [PA64, methyl 1-(4-benzylsulfanylphenyl)-9H-pyrido[3,4-b]indole-3-carboxylate], the “Kd (MST)” value (DDB1-BPB [1]) is reported as “Insoluble”, the “AlphaLisa IC50” value [4] is reported as “Neg” and the EC50 [5] is reported as 22.8 µM. It also gave an EC50 [6] greater than 20 µM.
Compound `O=C(O)c1cc2c([nH]c3ccccc32)c(-c2ccc(SCc3ccccc3)cc2)n1` [PA66, 1-(4-benzylsulfanylphenyl)-9H-pyrido[3,4-b]indole-3-carboxylic acid] has a Kd (DDB1-BPB [1]) of 59.6 µM, an IC50 [4] of 5.99 ± 0.43 µM and an EC50 [5] of 4.41 µM. For the same compound, the EC50 [6] was 4 µM.
With `O=C(O)c1cc2c([nH]c3ccccc32)c(-c2ccc(NCc3ccc(F)cc3)cc2)n1` [PA68, 1-[4-[(4-fluorophenyl)methylamino]phenyl]-9H-pyrido[3,4-b]indole-3-carboxylic acid] the “Kd (MST)” value (DDB1-BPB [1]) was “Insoluble”, the IC50 [4] was 2.33 ± 0.86 µM and the EC50 [5] was 9.12 µM. It also gave a Kd (DDB1-BPB [7]) of 13.2 µM and an EC50 [6] of 11 µM.
For `Cc1ccc2[nH]c3c(-c4ccc(S(C)(=O)=O)cc4)nc(C(=O)O)cc3c2c1` [PA72], the “Solubility (DLS Assay)” value [2] was “+/−”, the “Degradation Inhibition” value [3] was “−” and the IC50 [4] was 0.78 ± 0.02 µM. It also gave a Kd (DDB1-BPB [7]) of 4.57 µM.
With `CS(=O)(=O)c1ccc(-c2nc(C(=O)O)cc3c2[nH]c2ccc(O)cc23)cc1` [PA73] the “Solubility (DLS Assay)” value [2] was “+/−”, the IC50 [4] was 0.73 ± 0.35 µM and the EC50 [5] was greater than 100 µM. It also gave a Kd (DDB1-BPB [7]) of 7.34 µM and an EC50 [6] greater than 100 µM.
With `CS(=O)(=O)N(Cc1ccccc1)c1ccc(-c2nc(C(=O)O)cc3c2[nH]c2ccccc23)cc1` [PA76, 1-[4-[benzyl(methylsulfonyl)amino]phenyl]-9H-pyrido[3,4-b]indole-3-carboxylic acid] the “Degradation Inhibition” value [3] was “+”, the IC50 [4] was 1.52 ± 1.13 µM and the EC50 [5] was 28.9 µM. For the same compound, the Kd (DDB1-BPB [7]) was 4.54 µM and the EC50 [6] was greater than 100 µM.
In the case of `COC(=O)c1cc2c([nH]c3cccc(F)c32)c(-c2ccc(N(C)S(=O)(=O)c3ccccc3)cc2)n1` [PA99-1, methyl 5-fluoro-1-(4-(N-methylphenylsulfonamido)phenyl)-9H-pyrido[3,4-b]indole-3-carboxylate], the Kd (DDB1-BPB [1]) is reported as 321 µM, the “Solubility (DLS Assay)” value [2] is reported as “-(insoluble)” and the “Degradation Inhibition” value [3] is reported as “+”. The “AlphaLisa IC50” value [4] was “Neg”, the EC50 [5] was 3.47 µM and the EC50 [6] was greater than 100 µM.
For `Cc1ccc2c(c1)[nH]c1c(-c3ccc(N(C)S(=O)(=O)c4ccccc4)cc3)nc(C(=O)O)cc12` [PA106, 1-[4-[benzenesulfonyl(methyl)amino]phenyl]-7-methyl-9H-pyrido[3,4-b]indole-3-carboxylic acid], the Kd (DDB1-BPB [1]) was 443 µM, the “Solubility (DLS Assay)” value [2] was “+/−” and the IC50 [4] was 7.73 µM. For the same compound, the EC50 [5] was 7.98 µM and the EC50 [6] was greater than 100 µM.
In the case of `CN(c1ccc(-c2nc(C(=O)O)cc3c2[nH]c2cc(-c4ccccc4)ccc23)cc1)S(=O)(=O)c1ccccc1` [PA115, 1-[4-[benzenesulfonyl(methyl)amino]phenyl]-7-phenyl-9H-pyrido[3,4-b]indole-3-carboxylic acid], the Kd (DDB1-BPB [1]) is reported as 257 µM, the “Solubility (DLS Assay)” value [2] is reported as “-(insoluble)” and the IC50 [4] is reported as 17.4 ± 7.42 µM. It also gave an EC50 [5] of 2.15 µM and an EC50 [6] of 3.86 µM.
In the case of `CN(c1ccc(-c2nc(C(=O)O)cc3c2[nH]c2cc(Br)ccc23)cc1)S(=O)(=O)c1ccccc1` [PA117, 1-[4-[benzenesulfonyl(methyl)amino]phenyl]-7-bromo-9H-pyrido[3,4-b]indole-3-carboxylic acid], the Kd (DDB1-BPB [1]) is reported as 25.4 µM, the IC50 [4] is reported as 2.5 µM and the EC50 [5] is reported as 3.42 µM. For the same compound, the EC50 [6] was 5.48 µM.
